Earlier results on 1 molecule are cited in patent US20220193065A1, “COMPOSITIONS AND METHODS TO TREAT NON-ALCOHOLIC FATTY LIVER DISEASES (NAFLD)” (Coherus Biosciences, Inc., priority 2019, published 2022).

For the series the following is noted: monotherapy; background statement.

As to `Cc1cc(F)c(C(=O)Nc2cccc(-c3nncn3C(C)C)n2)cc1-n1cnc(C2CC2)c1` [selonsertib], the “primary endpoint of the STELLAR-4 phase 3 clinical trial” value was “failed to meet the primary endpoint”.
